Measured values taken from patent US12378251B2, “Triazolopyrimidine compound and salt, composition and use thereof” (SHANGHAI INSTITUTE OF MATERIA MEDICA, CHINESE ACADEMY OF …, priority 2019, dated 2025).
Where two headings read alike, the source gives them in different places.

Tests used:
[1] = system: human colon cancer cells HCT-116; assay: Inhibition of proliferation of HCT-116 cells (SRB method); assay type: cell-based
Protocol: The inhibitory effects of the compounds on the proliferation of human colon cancer cells HCT-116 were detected by a sulforodamine B (SRB) method. The specific steps were as follows: HCT-116 cells in the logarithmic phase were seeded into a 96-well culture plate at a suitable density with 90 μL per well. After overnight cultivation, the compounds at different concentrations were added to act for 72 h, and a solvent control group (negative control) was set. After 72 h of the compounds acting on the cells, the effects of the compounds on cell proliferation were detected using the SRB method as follows. The culture solution was discarded, and 100 μL/well of 10% trichloroacetic acid (TCA) pre-cooled at 4° C. was added, fixed at 4° C. for 1 h, then washed with distilled water for 5 times, and naturally dried in the air; 100 μL/well of SRB (4 mg/ml) solution prepared by 1% glacial acetic acid was added, stained at room temperature for 15 minutes; the supernatant was removed, washed with 1% acetic acid for 5 times, and air dried; 150 μl/well of Tris (10 mM) solution was added, then left at room temperature for 15 minutes; finally, a full-wavelength microplate enzyme-labeled instrument SpectraMax 190 was used to read with a measurement wavelength of 560 nm. The inhibition rate (%) of the compound on tumor cell growth was calculated by the following formula: [formula]

[2] = target: NAE enzyme (human recombinant APPBP1/UBA3) (Homo sapiens (Human), UniProt Q8TBC4); assay: Inhibition of NAE enzyme activity at the molecular level (HTRF); assay type: biochemical
Chain of NAE enzyme (human recombinant APPBP1/UBA3) (Q8TBC4 whole entry): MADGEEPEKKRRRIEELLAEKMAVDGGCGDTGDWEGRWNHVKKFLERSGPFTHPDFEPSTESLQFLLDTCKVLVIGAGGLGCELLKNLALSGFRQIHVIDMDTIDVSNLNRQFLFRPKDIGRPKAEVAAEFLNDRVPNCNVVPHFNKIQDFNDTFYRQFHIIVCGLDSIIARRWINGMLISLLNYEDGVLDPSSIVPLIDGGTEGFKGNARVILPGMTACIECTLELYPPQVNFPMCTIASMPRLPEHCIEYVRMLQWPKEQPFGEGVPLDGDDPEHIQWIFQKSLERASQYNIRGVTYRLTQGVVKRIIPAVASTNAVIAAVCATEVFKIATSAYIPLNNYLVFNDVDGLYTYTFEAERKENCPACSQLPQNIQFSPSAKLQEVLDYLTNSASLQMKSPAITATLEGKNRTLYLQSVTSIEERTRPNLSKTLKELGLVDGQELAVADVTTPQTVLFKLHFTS
Chain of NAE enzyme (human recombinant APPBP1/UBA3) (Q13564 whole entry partner): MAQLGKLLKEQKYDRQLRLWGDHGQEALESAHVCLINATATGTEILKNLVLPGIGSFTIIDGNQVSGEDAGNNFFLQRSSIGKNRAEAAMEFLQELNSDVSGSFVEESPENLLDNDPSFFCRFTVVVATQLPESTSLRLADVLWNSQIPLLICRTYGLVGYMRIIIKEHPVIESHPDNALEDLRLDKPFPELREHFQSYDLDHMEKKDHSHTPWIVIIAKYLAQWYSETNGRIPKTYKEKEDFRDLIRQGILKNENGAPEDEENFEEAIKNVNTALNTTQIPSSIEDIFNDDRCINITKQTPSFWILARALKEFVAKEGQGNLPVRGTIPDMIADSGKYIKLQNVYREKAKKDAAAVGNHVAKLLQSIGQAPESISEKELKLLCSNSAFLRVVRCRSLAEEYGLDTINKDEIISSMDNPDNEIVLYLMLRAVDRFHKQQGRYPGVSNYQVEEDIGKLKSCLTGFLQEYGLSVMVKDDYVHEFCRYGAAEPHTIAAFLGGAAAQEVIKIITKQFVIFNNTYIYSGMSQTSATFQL
Protocol: Homogeneous Time-Resolved Fluorescence (HTRF) technology was used to detect the in vitro inhibitory effect of the compound on NAE enzyme activity. […] (7) the inhibition rate of the compound was calculated by the following formula: • a. […] IC50 was calculated with a GraphPad software.

[3] = HCT-116 cells, 72 h, SRB, read-out: HCT-116 IC50*
[4] = HCT-116, 72 h, read-out: HCT-116 IC50* (μM)

Row | SMILES | IC50 [1, 3] [µM] | inhibition at 10 µM ([2]; 2 h, read-out: IR (10 μM)) [%] | inhibition at 10 µM ([2]; 2 h; read-out: IR (10 μM)) [%] | IC50 ([2]; NAE enzyme activity, HTRF) [µM] | IC50 [1, 4] [µM]
1 | NS(=O)(=O)OC[C@@H]1C[C@@H](n2ccc3c(N[C@H]4CCc5ccccc54)ncnc32)C[C@@H]1O [MLN4924, reference compound] | < 0.01 | 98.6 |  |  | 
2 | NS(=O)(=O)OCC1CC(n2nnc3c(Nc4cnc5ccccn45)ncnc32)CC1O (stereo not drawn) [Compound S19] | > 100 |  | 57.8 |  | 
3 | NS(=O)(=O)OCC1CC(n2nnc3c(NCc4ccco4)ncnc32)CC1O (stereo not drawn) [Compound S4] | 0.01 to 100 |  | 98.6 |  | 
4 | NS(=O)(=O)OC[C@@H]1C[C@@H](n2nnc3c(N[C@@H]4C[C@H]4c4ccc(F)c(F)c4)ncnc32)CC1O (stereo partly drawn) [Compound S16] | > 100 |  | 85.2 |  | 
5 | NS(=O)(=O)OCC1CC(n2nnc3c(N[C@H]4CC5(CCNCC5)c5ccccc54)ncnc32)CC1O (stereo partly drawn) [Compound S14] | > 100 |  | 91.4 |  | 
6 | CN1CCC2(CC1)C[C@H](Nc1ncnc3c1nnn3C1CC(O)C(COS(N)(=O)=O)C1)c1ccccc12 (stereo partly drawn) [Compound S15] | 0.01 to 100 |  | 77 | 0.1 to 1 | 
7 | COC(=O)[C@H]1C=C[C@@H](Nc2ncnc3c2nnn3C2CC(O)C(COS(N)(=O)=O)C2)C1 (stereo partly drawn) [Compound S20] |  | 84.8 |  |  | > 100
8 | CCCCCCNc1ncnc2c1nnn2C1CC(O)C(COS(N)(=O)=O)C1 (stereo not drawn) [Compound S8] | > 100 |  | 98.3 |  | 
9 | NS(=O)(=O)OCC1CC(n2nnc3c(Nn4ccc5ccccc54)ncnc32)CC1O (stereo not drawn) [Compound S18] | > 100 |  | 43.3 |  | 
10 | NS(=O)(=O)OCC1CC(n2nnc3c(NCc4cccs4)ncnc32)CC1O (stereo not drawn) [Compound S3] | 0.01 to 100 |  | 98.8 |  | 
11 | NS(=O)(=O)OCC1CC(n2nnc3c(Nc4n[nH]c5ccccc45)ncnc32)CC1O (stereo not drawn) [Compound S17] | > 100 |  | 7.9 |  | 
12 | NS(=O)(=O)OCC1CC(n2nnc3c(NCCCc4ccccc4)ncnc32)CC1O (stereo not drawn) [Compound S7] | > 100 |  | 96.1 | 0.1 to 1 | 
13 | NS(=O)(=O)OCC1CC(n2nnc3c(NCc4ccccc4F)ncnc32)CC1O (stereo not drawn) [Compound S2] | < 0.01 |  | 99.5 |  | 
14 | NS(=O)(=O)OCC1CC(n2nnc3c(N[C@H]4CCc5ccccc54)ncnc32)CC1O (stereo partly drawn) [Compound S1] |  | 99 |  |  | < 0.01
15 | NS(=O)(=O)OCC1CC(n2nnc3c(NCCc4ccccc4)ncnc32)CC1O (stereo not drawn) [Compound S6] |  | 95.8 |  |  | > 100
16 | NS(=O)(=O)OCC1CC(n2nnc3c(N[C@@H]4c5ccccc5C[C@@H]4O)ncnc32)CC1O (stereo partly drawn) [Compound S9] | < 0.01 |  | 98.3 |  | 
17 | NS(=O)(=O)OCC1CC(n2nnc3c(NC4CCCC4)ncnc32)CC1O (stereo not drawn) [Compound S21] | > 100 |  | 48.2 |  | 
18 | NS(=O)(=O)OCC1CC(n2nnc3c(NCCc4cccs4)ncnc32)CC1O (stereo not drawn) [Compound S5] |  | 95.2 |  | 0.1 to 1 | > 100
